Results published in patent US7799343B2, “Safer control of broadleaf weeds in turf with granular formulations of ALS inhibiting herbicides” (priority 2006, dated 2010).

Experiments:
Format in all cases: in vivo
[1] = tested on: tall fescue; test: Turf tolerance field study, tall fescue, Indiana 2004; conditions: 14 Days After Treatment, g ai/Ha: penoxsulam 35, imazaquin 104, bispyribac-sodium 75, trifloxysulfuron-sodium 9.2, metsulfuron-methyl 10.4; for Cover: 0 = bare ground, 100 = thick solid stand; for Color: 0 = brown to dead turf, 10 = lush green; for Injury: 0 = no visible injury, 10 = dead turf
Protocol: (§1) Turf tolerance studies were conducted in monoculture stands of perennial ryegrass and tall fescue. Replicated trials, containing a minimum of three replications and having individual plots ranging in size from 25 to 50 ft. sq (2.3 to 4.6 square meters), were initiated in the late spring when turf was actively growing. […] Natural rainfall and supplemental irrigation, fertilizer, fungicides and insecticides were used to maintain healthy turf throughout the study period. Turf tolerance evaluations were made weekly for 8 weeks after application. Evaluations compared treated and untreated plot areas and consisted of one or all of the following evaluations: 1) visual estimate of turf injury made on a 0 to 10 scale with 0 indicating no visible injury symptoms, 10 being dead turf and 3 or less being commercially acceptable; 2) visual estimate of turf color made on a 0 to 10 scale with 0 being brown to dead turf, 10 being a lush green turf of highest quality and 6.5 being commercially acceptable; 3) visual estimate of turf density made on a 0 to 100 scale with 0 being bare ground, 100 being a thick solid stand of highest quality and 90 percent density being commercially acceptable; 4) visual estimate of turf quality made on a 0 to 10 scale with 0 being brown to dead turf, 10 being a lush green turf of highest quality and 6.5 being commercially acceptable.

[2] = tested on: perennial ryegrass; test: Turf tolerance field study, perennial ryegrass, Indiana 2004; conditions: 21 Days After Treatment, g ai/Ha: penoxsulam 35, imazaquin 104, bispyribac-sodium 75, trifloxysulfuron-sodium 9.2, metsulfuron-methyl 10.4; for Cover: 0 = bare ground, 100 = thick solid stand; for Color: 0 = brown to dead turf, 10 = lush green; for Injury: 0 = no visible injury, 10 = dead turf
Protocol: as §1

[3] = tested on: perennial ryegrass; test: Perennial ryegrass turf quality field study, Pennsylvania 2004; conditions: perennial ryegrass, 0 = brown to dead turf, 10 = highest quality, g ai/Ha: penoxsulam 35, imazaquin 104, bispyribac-sodium 75, trifloxysulfuron-sodium 9.2, metsulfuron-methyl 10.4; for Turf Quality 4 DAA: 4 Days After Application; for Turf Quality 16 DAA: 16 Days After Application; for Turf Quality 36 DAA: 36 Days After Application
Protocol: as §1

[4] = tested on: dandelion, Taraxacum officinale (TAROF); test: Postemergent weed control field study, Pennsylvania 2004, TAROF; conditions: Granule formulation, g ai/Ha: penoxsulam 35, imazaquin 104, bispyribac-sodium 75, trifloxysulfuron-sodium 9.2, metsulfuron-methyl 10.4
Excerpt: (§2) The ALS inhibiting herbicides are useful in controlling broadleaf weeds and sedges in turfgrass. They are particularly effective against most important weeds in this application, viz., white clover, Trifolium repens L. (TRFRE); buckhorn plantain, Plantago lanceolata L. (PLALA); dandelion, Taraxacum officinale (TAROF); broadleaf plantain, Plantago major L. (PLAMA); ground ivy, Glechoma hederacea L. (GLEHE); common lespedeza, Lespedeza striata (LESST); pennywort (dollarweed), Hydrocotyle spp (HYDSS); Virginia buttonweed, Diodia virginiana L. (DIQVI) English daisy, Bellis perennis L. (BELPE); annual bluegrass, Poa annua (POANN); and yellow nutsedge, Cypres esculentus L. (CYPES).
(§3) Field studies were conducted in established turfgrass sites containing a natural population of target broadleaf weeds. Replicated trials, containing a minimum of three replications and having individual plots ranging in size from 25 to 50 ft. sq (2.3 to 4.6 square meters), were initiated in the late spring when turf and weeds were actively growing. Granule treatments were uniformly applied to individual plots using a common hand-shaker method. Applications were made in the early morning when dew was present. Natural rainfall and supplemental irrigation were used to maintain healthy turf and active weed growth throughout the study period. Control of each weed species in the study site was made at approximately 2, 4 and 8 weeks after treatment. Control was determined visually by comparing treated and untreated weeds and scored on a 0 to 100 percent scale where 0 corresponds to no control and 100 corresponds to complete kill.

[5] = tested on: white clover, Trifolium repens L. (TRFRE); test: Postemergent weed control field study, Pennsylvania 2004, TRFRE; conditions: g ai/Ha: penoxsulam 35, imazaquin 104, bispyribac-sodium 75, trifloxysulfuron-sodium 9.2, metsulfuron-methyl 10.4; for Percent Weed Control TRFRE 29DAA: 29 Days After Application; for Percent Weed Control TRFRE 56DAA: 56 Days After Application
Excerpt: as §2
as §3, with “Granule treatments were uniformly applied to individual plots using a common hand-shaker method.” left out

[6] = tested on: buckhorn plantain, Plantago lanceolata L. (PLALA); test: Postemergent weed control field study, Pennsylvania 2004, PLALA; conditions: g ai/Ha: penoxsulam 35, imazaquin 104, bispyribac-sodium 75, trifloxysulfuron-sodium 9.2, metsulfuron-methyl 10.4; for Percent Weed Control PLALA 29DAA: 29 Days After Application; for Percent Weed Control PLALA 56DAA: 56 Days After Application
Excerpt: as §2
as §3, with “Granule treatments were uniformly applied to individual plots using a common hand-shaker method.” left out

[7] = tested on: annual bluegrass, Poa annua (POANN); test: Postemergent weed control field study, Pennsylvania 2004, POANN; conditions: g ai/Ha: penoxsulam 35, imazaquin 104, bispyribac-sodium 75, trifloxysulfuron-sodium 9.2, metsulfuron-methyl 10.4; for Percent Weed Control POANN 29DAA: 29 Days After Application; for Percent Weed Control POANN 56DAA: 56 Days After Application
Excerpt: as §2, §3

[8] = tested on: dandelion, Taraxacum officinale (TAROF); test: Postemergent weed control field study, Pennsylvania 2004, TAROF; conditions: Liquid formulation, g ai/Ha: penoxsulam 35, imazaquin 104, bispyribac-sodium 75, trifloxysulfuron-sodium 9.2, metsulfuron-methyl 10.4

With `COc1cc(OC)nc(NC(=O)[N-]S(=O)(=O)c2ncccc2OCC(F)(F)F)n1.[Na+]` [Trifloxysulfuron-sodium, trifloxysulfuron-sodium] the Cover ([1]; Granule formulation) was 70.0 0-100 Scale, the Color ([1]; Granule formulation) was 5.8 0-10 Scale and the Injury ([1]; Granule formulation) was 5.8 0-10 Scale. For the same compound, the Cover ([1]; Liquid formulation) was 51.3 0-100 Scale, the Color ([1]; Liquid formulation) was 3.8 0-10 Scale and the Injury ([1]; Liquid formulation) was 8.0 0-10 Scale. For the same compound, the Cover ([2]; Granule formulation) was 87.5 0-100 Scale, the Color ([2]; Granule formulation) was 6.8 0-10 Scale and the Injury ([2]; Granule formulation) was 5.3 0-10 Scale. The Cover ([2]; Liquid formulation) was 57.5 0-100 Scale, the Color ([2]; Liquid formulation) was 4.0 0-10 Scale and the Injury ([2]; Liquid formulation) was 8.0 0-10 Scale. The “Turf Quality 4 DAA” value ([3]; Granule formulation) was 9.3 0 to 10 scale, the “Turf Quality 16 DAA” value ([3]; Granule formulation) was 4.3 0 to 10 scale and the “Turf Quality 36 DAA” value ([3]; Granule formulation) was 8.3 0 to 10 scale. For the same compound, the “Turf Quality 4 DAA” value ([3]; Liquid formulation) was 7.7 0 to 10 scale, the “Turf Quality 16 DAA” value ([3]; Liquid formulation) was 2.7 0 to 10 scale and the “Turf Quality 36 DAA” value ([3]; Liquid formulation) was 1.3 0 to 10 scale. The “Percent Weed Control TAROF 29DAA” value ([4]; 29 Days After Application) was 80.6%, the “Percent Weed Control TAROF 56DAA” value ([4]; 56 Days After Application) was 40.0% and the “Percent Weed Control TRFRE 29DAA” value ([5]; Granule formulation) was 80.0%. The “Percent Weed Control TRFRE 56DAA” value ([5]; Granule formulation) was 56.7%, the “Percent Weed Control TRFRE 29DAA” value ([5]; Liquid formulation) was 100.0% and the “Percent Weed Control TRFRE 56DAA” value ([5]; Liquid formulation) was 100.0%. The “Percent Weed Control PLALA 29DAA” value ([6]; Granule formulation) was 0.0%, the “Percent Weed Control PLALA 56DAA” value ([6]; Granule formulation) was 11.1% and the “Percent Weed Control PLALA 29DAA” value ([6]; Liquid formulation) was 0.0%. For the same compound, the “Percent Weed Control PLALA 56DAA” value ([6]; Liquid formulation) was 33.3%, the “Percent Weed Control POANN 29DAA” value ([7]; Granule formulation) was 34.5% and the “Percent Weed Control POANN 56DAA” value ([7]; Granule formulation) was 39.9%. The “Percent Weed Control POANN 29DAA” value ([7]; Liquid formulation) was 95.4%, the “Percent Weed Control POANN 56DAA” value ([7]; Liquid formulation) was 77.2% and the “Percent Weed Control TAROF 29DAA” value ([8]; 29 Days After Application) was 98.3%. For the same compound, the “Percent Weed Control TAROF 56DAA” value ([8]; 56 Days After Application) was 100.0%.
